Broadly, the IC50 is the concentration that gives 50% inhibition.

These results are taken from patent EP4782453A1 (Beyang Therapeutics Co., Ltd., priority 2023, dated 2025).

Structures are written as SMILES. Where two headings read alike, the source gives them in different places.

For one test, the target named is T1, Menin-MLL (Homo sapiens, UniProt O00255).
T1 construct: His-Menin (M1-L615 end); purchased BIORTUS BP9210
T1 sequence (O00255 1-615 isoform O00255-1): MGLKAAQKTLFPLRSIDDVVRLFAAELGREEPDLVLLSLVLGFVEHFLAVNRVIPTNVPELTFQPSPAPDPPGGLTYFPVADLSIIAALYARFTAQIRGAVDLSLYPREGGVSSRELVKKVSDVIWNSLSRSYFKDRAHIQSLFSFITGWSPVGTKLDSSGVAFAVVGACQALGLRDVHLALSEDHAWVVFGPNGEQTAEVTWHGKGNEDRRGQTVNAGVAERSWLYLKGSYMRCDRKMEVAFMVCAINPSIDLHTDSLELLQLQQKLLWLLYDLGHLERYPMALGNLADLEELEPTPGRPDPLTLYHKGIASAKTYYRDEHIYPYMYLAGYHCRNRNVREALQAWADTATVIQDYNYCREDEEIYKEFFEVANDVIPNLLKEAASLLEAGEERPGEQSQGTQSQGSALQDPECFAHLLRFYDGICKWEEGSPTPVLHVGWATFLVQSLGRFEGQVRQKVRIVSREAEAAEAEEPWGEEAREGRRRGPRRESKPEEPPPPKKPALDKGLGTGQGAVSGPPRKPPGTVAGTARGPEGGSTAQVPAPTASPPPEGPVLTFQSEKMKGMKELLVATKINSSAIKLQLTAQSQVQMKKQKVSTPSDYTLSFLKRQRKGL
The test is described as follows: Inhibitory activity against Menin-MLL binding (fluorescence polarization). The settings on record: 150 nM His-Menin, 15 nM FITC-MLL, 25°C for 60 min. Put shortly: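 Fluorescence polarization competition: compound and 150 nM His-tagged menin (residues M1-L615) sit 15 min at 25 °C in pH 7.5 HEPES buffer with NaCl, DTT and BSA; 15 nM FITC-labelled MLL peptide then binds for 60 min. IC50 fitted sigmoidally from mP values, duplicate wells.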
In general terms: Polarisation of emitted light reports the rotation of a fluorescent probe.

Test [1] relates to MV-4-11 (carrying MLL-AF4). The test is described as follows: Inhibition of proliferation of human tumor cells (Alamar Blue, 7 days), MV-4-11. The format is cell-based. The settings on record: Homo sapiens, MV4-11, 168 h, MV-4-11 cells (carrying MLL-AF4), method calls the value GI50. The text has this:
Experimental Example 2: Evaluation of Inhibitory Activity of Compounds Against Proliferation of Human Tumor Cells
• Human acute lymphoblastic leukemia cells MV-4-11, purchased from American Type Culture Collection, Catalog Number: CRL-9591; • Human acute myeloid leukemia cells MOLM-13, purchased from COBIOER BIOSCIENCES CO., LTD, Catalog Number: CBP60678; • Human acute myeloid leukemia cells KG-1a, purchased from American Type Culture Collection, Catalog Number: CCL-246.1; • Inverted Microscope, purchased from Olympus Tokyo; • Countess™ Automated Cell Counter, purchased from Invitrogen, Model: C10281; and • Multilabel Reader, purchased from Bio-Tek, Model: Synergy HT.
MV-4-11 cells were cultured in an IMDM medium containing 10% fetal bovine serum, KG-a cells were cultured in an IMDM medium containing 20% fetal bovine serum, or MOLM-13 cells were cultured in an RPMI-1640 medium containing 20% fetal bovine serum, each supplemented with 100 U·mL^-1 penicillin and 100 µg·mL^-1 streptomycin. These cells were cultured at 37°C with 5% CO2. The suspensions of individual cell lines were prepared in their respective media and seeded into 96-well plates at a density of 4,000 cells/well for MV-4-11 and MOLM-13 cells, or 3,000 cells/well for KG-1a cells. On the day of the experiment, a compound stock solution was diluted in a 3-fold or 4-fold gradient using DMSO. Each gradient-diluted stock solution was then further diluted 250-fold with a complete medium to prepare a series of working solutions at different concentrations. Subsequently, 100 µL of working solution (containing a 2-fold concentration series of the test compound) was added to each well, with duplicate wells set up for each concentration.
Seven days after compound addition (on Day 7), an Alamar Blue assay reagent (MCE, HY-111391 / CS-0040317) was added to measure the fluorescence intensity in each well. Wells containing the cells in the growth medium supplemented with 0.1% DMSO (Day 7) served as high-read control wells. The readouts from the wells containing the cells in the growth medium supplemented with 0.1% DMSO on the day of compound addition (Day 0) served as low-reading control well. GraphPad Prism software was used to calculate the concentration required to inhibit 50% of cell proliferation (GI50), which serves as a cell proliferation inhibition activity index.
On the technique in general: The colour change of resazurin is a common sign of viable cells or microbes.

Test [2] has as its system MOLM-13 (carrying MLL-AF9). The test is described as follows: Inhibition of proliferation of human tumor cells (Alamar Blue, 7 days), MOLM-13. The format is cell-based. The settings on record: Homo sapiens, MOLM-13 cells (carrying MLL-AF9), method calls the value GI50. The procedure, abridged: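 GI50 values reflect growth inhibition over 7 days, read by Alamar Blue. Seeding density was 4,000 cells/well except KG-1a (3,000 cells/well); each line grew in its own FBS-containing medium at 37°C.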

The mark [3] stands for this setting: fluorescence polarization, read-out: Menin-MLL IC50.

In the case of `CNC(=O)N1CCC(CN2CC(c3cc(-c4ccc(F)cc4C(=O)N4[C@H](C)COC[C@H]4C)c4c(F)nc(C)n4c3)C2)CC1` [Example 222], the IC50 amounted to 7 nM at Menin-MLL (setting [3]), 4.4 nM in test [1] and 9 nM in test [2] (168 h).

For the compound `Cc1nc(F)c2c(-c3ccc(F)cc3C(=O)N3CCOC[C@H]3C)cc(C3CN(CC4CCN(C(=O)C5(O)CC5)CC4)C3)cn12` [Example 248], the concentration for half-maximal inhibition (IC50) at Menin-MLL (setting [3]) is 30.5 nM; in test [1], 34 nM; in test [2] (168 h) it was 63 nM.

Regarding `COC(=O)N1CCC(CN2CC(c3cc(-c4ccc(F)cc4C(=O)N4CCOC[C@H]4C)c4c(F)nc(C)n4c3)C2)CC1` [Example 259], the IC50 at Menin-MLL (setting [3]) is 59 nM; in test [1], 55 nM; in test [2] (168 h), 110 nM.

For `Cc1nc(F)c2c(-c3ccc(F)cc3C(=O)N(CC(F)F)C(C)C)cc(C3CN(C(=O)[C@@H]4CCCCN4)C3)cn12` [Example 131, N-(2,2-difluoroethyl)-5-fluoro-2-(1-fluoro-3-methyl-6-{1-[(2S)-piperidin-2-carbonyl]azacyclobutan-3-yl}imidazo[1,5-a]pyridin-8-yl)-N-(isopropyl)benzamide], the concentration for half-maximal inhibition (IC50) on Menin-MLL (setting [3]) is 15.5 nM; in test [1], 50 nM; in test [2] (168 h), 40 nM.

As for `Cc1nc(F)c2c(-c3ccc(F)cc3C(=O)N3[C@H](C)COC[C@H]3C)cc(C3CN(C[C@H]4CC[C@H](n5cncn5)CC4)C3)cn12` [Example 213, (3R,5R)-4-{5-fluoro-2-[1-fluoro-3-methyl-6-(1-{[(1r,4r)-4-(1H-1,2,4-triazol-1-yl)cyclohexyl]methyl}azacyclobutan-3-yl)imidazo[1,5-a]pyridin-8yl]benzoyl}-3,5-dimethylmorpholine], the IC50 on Menin-MLL (Menin-MLL IC50, fluorescence polarization) was 11 nM; in test [1], 13 nM; in test [2] (MOLM-13, 168 h), 29 nM.

In the case of `Cc1nc(F)c2c(-c3ccc(F)cc3C(=O)N3[C@H](C)COC[C@H]3C)cc(C3CN([C@H](C)C4CCOCC4)C3)cn12` [Example 209-1, (3R,5R)-4-[5-fluoro-2-(1-fluoro-3-methyl-6-{1-[(1R)-1-(oxacyclohexan-4-yl)ethyl]azacyclobutan-3-yl}imidazo[1,5-a]pyridin-8-yl)benzoyl]-3,5-dimethylmorpholine], the IC50 on Menin-MLL (setting [3]) worked out at 29.5 nM; in test [1], 12 nM; in test [2] (168 h), 21 nM.

For the compound `CC(=O)N1CCC(CN2CC(c3cc(-c4ccc(F)cc4C(=O)N4CCOC[C@H]4C)c4c(F)nc(C)n4c3)C2)CC1` [Example 225], the IC50 on Menin-MLL (setting [3]) worked out at 28 nM; in test [1] it was 25 nM; in test [2] (168 h), 60 nM.

Take `Cc1nc(F)c2c(-c3ccc(F)cc3C(=O)N3[C@H](C)COC[C@H]3C)cc(C3CN(CC4CCN(CC5(O)CCOCC5)CC4)C3)cn12` [Example 211, 4-[(4-{[3-(8-{2-[(3R,5R)-3,5-dimethylmorpholin-4-carbonyl]-4-fluorophenyl}-1-fluoro-3-methylimidazo[1,5-a]pyridin-6-yl)azacyclobutan-1-yl]methyl}piperidin-1-yl)methyl]oxacyclohexan-4-ol]: the values for the IC50 (on Menin-MLL (setting [3]); in test [1]; in test [2] (168 h)) were 3 nM, 2.2 nM and 5.7 nM, respectively.

For `Cc1nc(F)c2c(-c3ccc(F)cc3C(=O)N3[C@H](C)COC[C@H]3C)cc(C3CN(CC4CCN(C(=O)C5CC5)CC4)C3)cn12` [Example 215], the figures for the IC50 (at Menin-MLL (setting [3]); in test [1]; in test [2] (168 h)) were 11 nM, 6.7 nM and 13 nM, respectively.

In the case of `Cc1ncc2c(-c3ccc(F)cc3C(=O)N3[C@H](C)COC[C@H]3C)cc(C3CN(CC4CCOCC4)C3)cn12` [Example 212, (3R,5R)-4-[5-fluoro-2-(3-methyl-6-{1-[(oxacyclohexan-4-yl)methyl]azacyclobutan-3-yl}imidazo[1,5-a]pyridin-8-yl)benzoyl]-3,5-dimethylmorpholine], the IC50 on Menin-MLL (setting [3]) was found to be 12.5 nM; in test [1], 16 nM; in test [2] (168 h), 31 nM.

For the compound `CCC(=O)N1CCC([C@H](C)N2CC(c3cc(-c4ccc(F)cc4C(=O)N4CCOC[C@H]4C)c4c(F)nc(C)n4c3)C2)CC1` [Example 295], the IC50 came out at 5 nM on Menin-MLL (setting [3]), 19 nM in test [1] and 47 nM in test [2] (168 h).

As for `CO[C@@H]1CN(CCC[C@H](C(C)C)N2CC(c3cc(-c4ccc(F)cc4C(=O)N4CCOC[C@H]4C)c4c(F)nc(C)n4c3)C2)C[C@H]1O` (relative stereo) [Example 291, (3r,4r)-1-[(4R)-4-[3-(1-fluoro-8-{4-fluoro-2-[(3R)-3-methylmorpholin-4-carbonyl]phenyl}-3-methylimidazo[1,5-a]pyridin-6-yl)azacyclobutan-1-yl]-5-methylhexyl]-4-methoxypyrrolidin-3-ol], the IC50 on Menin-MLL (setting [3]) came out at 3 nM; in test [1], 1.6 nM; in test [2] (168 h) it was 7 nM.

Regarding `Cc1nc(F)c2c(-c3ccc(F)cc3C(=O)N3CCOC[C@H]3C)cc(C3CN(CC4CCN(c5cncnc5)CC4)C3)cn12` [Example 266, (3R)-4-{5-fluoro-2-[1-fluoro-3-methyl-6-(1-{[1-(pyrimidin-5-yl)piperidin-4-yl]methyl}azacyclobutan-3-yl)imidazo[1,5-a]pyridin-8yl]benzoyl}-3-methylmorpholine], the IC50 at Menin-MLL (setting [3]) stood at 13 nM; in test [1], 13 nM; in test [2] (168 h), 33 nM.

For `COCCC(=O)N1CCC(CN2CC(c3cc(-c4ccc(F)cc4C(=O)N4[C@H](C)COC[C@H]4C)c4c(F)nc(C)n4c3)C2)CC1` [Example 223], the IC50 on Menin-MLL (setting [3]) amounted to 15 nM; in test [1] it was 8.1 nM; in test [2] (168 h), 19 nM.

With `Cc1nc(F)c2c(-c3ccc(F)cc3C(=O)N3[C@H](C)COC[C@H]3C)cc(C3CN(CC4CCN(C(=O)CC(C)C)CC4)C3)cn12` [Example 218], the IC50 worked out at 13 nM on Menin-MLL (setting [3]), 6 nM in test [1] and 11 nM in test [2] (168 h).

In the case of `Cc1nc(F)c2c(-c3ccc(F)cc3C(=O)N3CCOC[C@H]3C)cc(C3CN([C@@H](C)C4CCOCC4)C3)cn12` [Example 238-2, (3R)-4-[5-fluoro-2-(1-fluoro-3-methyl-6-{1-[(1S)-1-(oxacyclohexan-4-yl)ethyl]azacyclobutan-3-yl}imidazo[1,5-a]pyridin-8-yl)benzoyl]-3-methylmorpholine], the IC50 at Menin-MLL (setting [3]) worked out at 18 nM; in test [1], 11 nM; in test [2] (168 h), 27 nM.

Regarding `COCCN(C)C1CC(C(C(C)C)N2CC(c3cc(-c4ccc(F)cc4C(=O)N4CCOC[C@H]4C)c4cnn(C)c4c3)C2)C1` (stereo partly drawn) [Example 195, 3-{1-[3-(4-{4-fluoro-2-[(3R)-3-methylmorpholin-4-carbonyl]phenyl}-1-methyl-1H-indazol-6-yl)azacyclobutan-1-yl]-2-methylpropyl}-N-(2-methoxyethyl)-N-methylcyclobutan-1-amine], the IC50 was 41 nM at Menin-MLL (setting [3]), 13 nM in test [1] and 35 nM in test [2] (168 h).
